Measurements reported in ChEMBL document CHEMBL3885881, “DrugMatrix”.

Species on record: Rattus norvegicus
Assay: DrugMatrix - Regimen: Daily Repeat
Assay type: toxicity, organism-based, Sprague-Dawley
Design: regimen Daily Repeat, gender Male, age 6-8 weeks
Conditions: in vivo, po, route oral GAVAGE, vehicle 100 % SALINE; for ABSOLUTE BASOPHIL / ABSOLUTE EOSINOPHIL / ABSOLUTE LYMPHOCYTE / ABSOLUTE MONOCYTE / ABSOLUTE SEGMENTED NEUTROPHIL / BASOPHIL / EOSINOPHIL / ERYTHROCYTE COUNT / HEMATOCRIT / HEMOGLOBIN / LEUKOCYTE COUNT / LYMPHOCYTE / MEAN CORPUSCULAR HEMOGLOBIN / MEAN CORPUSCULAR HEMOGLOBIN CONCENTRATION / MEAN CORPUSCULAR VOLUME / MONOCYTE / NEUTROPHIL / NUCLEATED RED BLOOD CELLS / PLATELET COUNT: tissue Blood; for ALANINE AMINOTRANSFERASE / ALBUMIN / ALKALINE PHOSPHATASE / ASPARTATE AMINOTRANSFERASE / BLOOD UREA NITROGEN / CARBON DIOXIDE / CHLORIDE / CHOLESTEROL / CREATINE PHOSPHOKINASE / CREATININE / GLUCOSE / LACTATE DEHYDROGENASE / LIPASE / PHOSPHORUS / POTASSIUM / SODIUM / TOTAL BILIRUBIN / TOTAL PROTEIN / URIC ACID: tissue Plasma
[1] = 46 mg/kg, 120 h, dose level Low, time 5 day
[2] = 360 mg/kg, 72 h, dose level High, time 3 day
[3] = 360 mg/kg, 120 h, dose level High, time 5 day

COc1ccc2cc(CC(=O)O)ccc2c1
ABSOLUTE BASOPHIL [1]: 0 CELLS/uL | ABSOLUTE EOSINOPHIL [1]: 93.33 CELLS/uL | ABSOLUTE LYMPHOCYTE [1]: 9837 CELLS/uL | ABSOLUTE MONOCYTE [1]: 271.67 CELLS/uL | ABSOLUTE SEGMENTED NEUTROPHIL [1]: 1398 CELLS/uL | BASOPHIL [1]: 0% | EOSINOPHIL [1]: 0.67% | ERYTHROCYTE COUNT [1]: 5.65 x10E6/uL | HEMATOCRIT [1]: 35.2% | HEMOGLOBIN [1]: 13.83 G/DL | LEUKOCYTE COUNT [1]: 11.6 x10E3/uL | LYMPHOCYTE [1]: 86% | MEAN CORPUSCULAR HEMOGLOBIN [1]: 24.5 pg | MEAN CORPUSCULAR HEMOGLOBIN CONCENTRATION [1]: 39.33 G/DL | MEAN CORPUSCULAR VOLUME [1]: 62.23 fL | MONOCYTE [1]: 2.33% | NEUTROPHIL [1]: 11% | NUCLEATED RED BLOOD CELLS [1]: 0 /100WBC | PLATELET COUNT [1]: 1138.33 x10E3/uL | ALANINE AMINOTRANSFERASE [1]: 39.67 u/L | ALBUMIN [1]: 3.93 G/DL | ALKALINE PHOSPHATASE [1]: 339 u/L | ASPARTATE AMINOTRANSFERASE [1]: 71 u/L | BLOOD UREA NITROGEN [1]: 16.67 mg/dL | CARBON DIOXIDE [1]: 37.33 mmol/L | CHLORIDE [1]: 100 MEQ/L | CHOLESTEROL [1]: 65.67 mg/dL | CREATINE PHOSPHOKINASE [1]: 168 u/L | CREATININE [1]: 0.25 mg/dL | GLUCOSE [1]: 144.33 mg/dL | LACTATE DEHYDROGENASE [1]: 125.67 u/L | LIPASE [1]: 9.33 u/L | PHOSPHORUS [1]: 9.93 mg/dL | POTASSIUM [1]: 6.48 MEQ/L | SODIUM [1]: 142.9 MEQ/L | TOTAL BILIRUBIN [1]: 0.2 mg/dL | TOTAL PROTEIN [1]: 5.57 G/DL | URIC ACID [1]: 1.23 mg/dL | ABSOLUTE BASOPHIL [2]: 0 CELLS/uL | ABSOLUTE EOSINOPHIL [2]: 13.33 CELLS/uL | ABSOLUTE LYMPHOCYTE [2]: 7596.67 CELLS/uL | ABSOLUTE MONOCYTE [2]: 249.33 CELLS/uL | ABSOLUTE SEGMENTED NEUTROPHIL [2]: 2774 CELLS/uL | BASOPHIL [2]: 0% | EOSINOPHIL [2]: 0.33% | ERYTHROCYTE COUNT [2]: 3.71 x10E6/uL | HEMATOCRIT [2]: 23.17% | HEMOGLOBIN [2]: 9.43 G/DL | LEUKOCYTE COUNT [2]: 10.63 x10E3/uL | LYMPHOCYTE [2]: 66.67% | MEAN CORPUSCULAR HEMOGLOBIN [2]: 25.93 pg | MEAN CORPUSCULAR HEMOGLOBIN CONCENTRATION [2]: 41.23 G/DL | MEAN CORPUSCULAR VOLUME [2]: 62.9 fL | MONOCYTE [2]: 1.67% | NEUTROPHIL [2]: 31.33% | NUCLEATED RED BLOOD CELLS [2]: 1.67 /100WBC | PLATELET COUNT [2]: 943 x10E3/uL | ALANINE AMINOTRANSFERASE [2]: 45.33 u/L | ALBUMIN [2]: 2.4 G/DL | ALKALINE PHOSPHATASE [2]: 253 u/L | ASPARTATE AMINOTRANSFERASE [2]: 212.33 u/L | BLOOD UREA NITROGEN [2]: 22.33 mg/dL | CARBON DIOXIDE [2]: 20.33 mmol/L | CHLORIDE [2]: 99.67 MEQ/L | CHOLESTEROL [2]: 66.67 mg/dL | CREATINE PHOSPHOKINASE [2]: 1447.67 u/L | CREATININE [2]: 0.17 mg/dL | GLUCOSE [2]: 135.67 mg/dL | LACTATE DEHYDROGENASE [2]: 735.67 u/L | LIPASE [2]: 8.67 u/L | PHOSPHORUS [2]: 17 mg/dL | POTASSIUM [2]: 8 MEQ/L | SODIUM [2]: 141 MEQ/L | TOTAL BILIRUBIN [2]: 0.17 mg/dL | TOTAL PROTEIN [2]: 5.13 G/DL | URIC ACID [2]: 3.87 mg/dL | ABSOLUTE BASOPHIL [3]: 0 CELLS/uL | ABSOLUTE EOSINOPHIL [3]: 0 CELLS/uL | ABSOLUTE LYMPHOCYTE [3]: 14145 CELLS/uL | ABSOLUTE MONOCYTE [3]: 225 CELLS/uL | ABSOLUTE SEGMENTED NEUTROPHIL [3]: 8130 CELLS/uL | BASOPHIL [3]: 0% | EOSINOPHIL [3]: 0% | ERYTHROCYTE COUNT [3]: 4.19 x10E6/uL | HEMATOCRIT [3]: 26.25% | HEMOGLOBIN [3]: 10.55 G/DL | LEUKOCYTE COUNT [3]: 22.5 x10E3/uL | LYMPHOCYTE [3]: 62% | MEAN CORPUSCULAR HEMOGLOBIN [3]: 25.2 pg | MEAN CORPUSCULAR HEMOGLOBIN CONCENTRATION [3]: 40.2 G/DL | MEAN CORPUSCULAR VOLUME [3]: 62.7 fL | MONOCYTE [3]: 1% | NEUTROPHIL [3]: 37% | NUCLEATED RED BLOOD CELLS [3]: 0 /100WBC | PLATELET COUNT [3]: 2123.5 x10E3/uL | ALANINE AMINOTRANSFERASE [3]: 16.5 u/L | ALBUMIN [3]: 2.7 G/DL | ALKALINE PHOSPHATASE [3]: 153.5 u/L | ASPARTATE AMINOTRANSFERASE [3]: 50 u/L | BLOOD UREA NITROGEN [3]: 14 mg/dL | CARBON DIOXIDE [3]: 28 mmol/L | CHLORIDE [3]: 103 MEQ/L | CHOLESTEROL [3]: 71.5 mg/dL | CREATINE PHOSPHOKINASE [3]: 441 u/L | CREATININE [3]: 0.14 mg/dL | GLUCOSE [3]: 156.5 mg/dL | LACTATE DEHYDROGENASE [3]: 371.5 u/L | LIPASE [3]: 8 u/L | PHOSPHORUS [3]: 10.3 mg/dL | POTASSIUM [3]: 5.81 MEQ/L | SODIUM [3]: 139.25 MEQ/L | TOTAL BILIRUBIN [3]: 0.1 mg/dL | TOTAL PROTEIN [3]: 4.85 G/DL | URIC ACID [3]: 2.15 mg/dL
